This assay relates to BMDM. Nature of the assay: Anti-osteoporosis activity in C57BL/6 mouse bone marrow macrophages assessed as inhibition of M-CSF/GST-tagged recombinant RANKL-induced osteoclast differentiation measured after 5 days by TRAP staining based assay. It counts as functional, cell-based. The note with it: C57BL/6, BMDM, 120 h.

This is an account of results in ChEMBL document CHEMBL4610100, “Jatrophane Diterpenoids from Euphorbia esula as Inhibitors of RANKL-Induced Osteoclastogenesis” (J Nat Prod, 2020).

A word on the IC50: it is the concentration needed to halve the response being measured.

Turning to `C=C1[C@H](OC(=O)c2ccccc2)[C@@H](O)[C@@H](OC(=O)c2cccnc2)C(C)(C)/C=C/[C@@H](C)C(=O)[C@@]2(O)C[C@H](C)[C@H](OC(C)=O)[C@@H]2[C@H]1OC(C)=O`, the IC50 is 10 µM. With `C=C1[C@H](OC(=O)c2ccccc2)[C@@H](OC(C)=O)[C@@H](OC(=O)c2cccnc2)C(C)(C)/C=C/[C@@H](C)C(=O)[C@@]2(O)C[C@H](C)[C@H](OC(C)=O)[C@@H]2[C@H]1OC(C)=O` the figure was above 10 µM.
